Data: ChEMBL document CHEMBL4257535, “Design, synthesis and biological evaluation of AKT inhibitors bearing a piperidin-4-yl appendant” (Medchemcomm, 2018)
Calls of active or inactive are those of the source. The rule behind the calls is not given here.

Columns and labels:
Homo sapiens [1] = species: Homo sapiens; assay: Inhibition of PKA (unknown origin) at 1 uM after 40 mins by scintillation counting method relative to control
[2] = target: T1, RAC-alpha serine/threonine-protein kinase (Homo sapiens, UniProt P31749); assay: Inhibition of AKT phosphorylation in human PC3 cells at 1 to 10 uM after 4 hrs by Western blot analysis; assay type: cell-based
T1 sequence (P31749 whole entry): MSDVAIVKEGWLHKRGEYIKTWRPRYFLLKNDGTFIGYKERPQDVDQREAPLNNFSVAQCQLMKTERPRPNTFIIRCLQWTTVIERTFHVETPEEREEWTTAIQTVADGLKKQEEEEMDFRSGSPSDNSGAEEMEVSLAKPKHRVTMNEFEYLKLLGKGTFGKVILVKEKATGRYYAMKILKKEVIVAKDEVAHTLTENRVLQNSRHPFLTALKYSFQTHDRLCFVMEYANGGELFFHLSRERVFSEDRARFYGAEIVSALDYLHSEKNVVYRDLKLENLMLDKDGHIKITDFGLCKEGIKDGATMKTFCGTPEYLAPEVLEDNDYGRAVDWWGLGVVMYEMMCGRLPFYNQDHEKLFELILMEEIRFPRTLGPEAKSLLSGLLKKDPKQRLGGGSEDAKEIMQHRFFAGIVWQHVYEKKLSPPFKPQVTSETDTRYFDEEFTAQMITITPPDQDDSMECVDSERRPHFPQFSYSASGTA

[3] = target: T1, RAC-alpha serine/threonine-protein kinase; assay: Inhibition of AKT1 (unknown origin) at 1 uM using biotin-labelled STK as substrate measured after 45 mins by HTRF method relative to control
[4] = target: T1, RAC-alpha serine/threonine-protein kinase; assay: Inhibition of AKT in human PC3 cells assessed as reduction in GSK3beta phosphorylation at 1 to 10 uM after 4 hrs by Western blot analysis; assay type: cell-based
PC-3 [5] = assay: Induction of apoptosis in human PC3 cells assessed as early apoptotic cells at 10 uM after 48 hrs by Annexin V-FITC/propidium iodide staining based flow cytometry (reference value: 1.05%); assay type: functional
in vitro [6] = assay: in vitro; set-up: dose or concentration left out as unconfirmed; settings: human, liver microsomes
Description: Intrinsic clearance in human liver microsomes at 10 mM preincubated for 10 mins followed by NADPH addition and measured after 5 to 60 mins by LC-MS analysis

PC-3 [7] = assay: Induction of apoptosis in human PC3 cells assessed as necrotic cells at 5 uM after 48 hrs by Annexin V-FITC/propidium iodide staining based flow cytometry (reference value: 1.48%); assay type: functional
[8] = target: T2, Serine/threonine-protein kinase Chk1 (Homo sapiens) (UniProt O14757); assay: Inhibition of CHK1 (unknown origin) at 1 uM after 40 mins by scintillation counting method relative to control
T2 sequence (whole entry): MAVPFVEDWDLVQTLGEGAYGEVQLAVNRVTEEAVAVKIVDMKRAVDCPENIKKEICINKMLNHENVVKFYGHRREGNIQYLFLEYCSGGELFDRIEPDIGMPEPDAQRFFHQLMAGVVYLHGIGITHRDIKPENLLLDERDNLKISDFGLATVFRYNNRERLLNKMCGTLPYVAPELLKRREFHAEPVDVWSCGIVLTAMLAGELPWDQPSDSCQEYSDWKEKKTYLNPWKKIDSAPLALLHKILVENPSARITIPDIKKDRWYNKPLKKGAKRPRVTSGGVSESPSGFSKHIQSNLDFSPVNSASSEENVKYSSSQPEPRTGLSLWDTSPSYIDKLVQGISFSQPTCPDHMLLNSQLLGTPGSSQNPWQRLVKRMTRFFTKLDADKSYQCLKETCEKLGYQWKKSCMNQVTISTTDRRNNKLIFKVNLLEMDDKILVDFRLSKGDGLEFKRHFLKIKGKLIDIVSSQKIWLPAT

[9] = target: RAF proto-oncogene serine/threonine-protein kinase (Homo sapiens) (UniProt P04049); assay: Inhibition of RAF1 (unknown origin) at 1 uM after 40 mins by scintillation counting method relative to control
Chain of RAF proto-oncogene serine/threonine-protein kinase (Homo sapiens) (P04049 whole entry): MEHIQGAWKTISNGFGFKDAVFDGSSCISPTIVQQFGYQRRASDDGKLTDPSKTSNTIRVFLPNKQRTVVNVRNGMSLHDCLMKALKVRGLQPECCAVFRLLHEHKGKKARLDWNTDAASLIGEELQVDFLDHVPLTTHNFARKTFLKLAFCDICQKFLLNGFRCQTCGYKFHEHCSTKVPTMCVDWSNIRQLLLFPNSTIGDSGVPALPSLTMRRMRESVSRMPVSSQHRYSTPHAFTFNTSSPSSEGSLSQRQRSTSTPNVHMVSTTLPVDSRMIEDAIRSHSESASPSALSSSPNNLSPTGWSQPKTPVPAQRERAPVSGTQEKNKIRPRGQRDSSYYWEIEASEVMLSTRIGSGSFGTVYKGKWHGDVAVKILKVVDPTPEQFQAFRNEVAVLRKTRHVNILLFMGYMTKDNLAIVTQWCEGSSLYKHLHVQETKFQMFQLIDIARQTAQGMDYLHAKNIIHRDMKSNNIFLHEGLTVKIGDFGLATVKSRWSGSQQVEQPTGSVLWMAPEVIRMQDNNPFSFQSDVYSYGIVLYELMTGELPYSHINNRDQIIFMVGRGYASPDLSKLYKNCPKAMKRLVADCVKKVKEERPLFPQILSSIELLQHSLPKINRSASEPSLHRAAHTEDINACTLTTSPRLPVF

PC-3 [10] = assay: Induction of apoptosis in human PC3 cells assessed as late apoptotic cells at 10 uM after 48 hrs by Annexin V-FITC/propidium iodide staining based flow cytometry (reference value: 0.27%); assay type: functional
[11] = target: Ribosomal protein S6 kinase (Homo sapiens) (UniProt P51812+Q9UBS0+O75676+Q15349+O75582+P23443+Q9UK32+Q15418); assay: Inhibition of p70S6K (unknown origin) at 1 uM after 40 mins by scintillation counting method relative to control; assay type: protein assay
[12] = target: T1, RAC-alpha serine/threonine-protein kinase; assay: Inhibition of AKT1 (unknown origin) at 10 nM after 40 mins by scintillation counting method relative to control
Homo sapiens [13] = species: Homo sapiens; assay: Selectivity ratio of compound effect for inhibition of AKT3 (unknown origin) to compound effect for inhibition of AKT2 (unknown origin)
PC-3 [14] = assay: Induction of apoptosis in human PC3 cells assessed as live cells at 10 uM after 48 hrs by Annexin V-FITC/propidium iodide staining based flow cytometry (reference value: 97.19%); assay type: functional
PC-3 [15] = assay: Induction of apoptosis in human PC3 cells assessed as late apoptotic cells at 1 uM after 48 hrs by Annexin V-FITC/propidium iodide staining based flow cytometry (reference value: 0.27%); assay type: functional
[16] = target: Tyrosine-protein kinase JAK1 (Homo sapiens) (UniProt P23458); assay: Inhibition of JAK1 (unknown origin) at 1 uM after 40 mins by scintillation counting method relative to control
Chain of Tyrosine-protein kinase JAK1 (Homo sapiens) (P23458 whole entry): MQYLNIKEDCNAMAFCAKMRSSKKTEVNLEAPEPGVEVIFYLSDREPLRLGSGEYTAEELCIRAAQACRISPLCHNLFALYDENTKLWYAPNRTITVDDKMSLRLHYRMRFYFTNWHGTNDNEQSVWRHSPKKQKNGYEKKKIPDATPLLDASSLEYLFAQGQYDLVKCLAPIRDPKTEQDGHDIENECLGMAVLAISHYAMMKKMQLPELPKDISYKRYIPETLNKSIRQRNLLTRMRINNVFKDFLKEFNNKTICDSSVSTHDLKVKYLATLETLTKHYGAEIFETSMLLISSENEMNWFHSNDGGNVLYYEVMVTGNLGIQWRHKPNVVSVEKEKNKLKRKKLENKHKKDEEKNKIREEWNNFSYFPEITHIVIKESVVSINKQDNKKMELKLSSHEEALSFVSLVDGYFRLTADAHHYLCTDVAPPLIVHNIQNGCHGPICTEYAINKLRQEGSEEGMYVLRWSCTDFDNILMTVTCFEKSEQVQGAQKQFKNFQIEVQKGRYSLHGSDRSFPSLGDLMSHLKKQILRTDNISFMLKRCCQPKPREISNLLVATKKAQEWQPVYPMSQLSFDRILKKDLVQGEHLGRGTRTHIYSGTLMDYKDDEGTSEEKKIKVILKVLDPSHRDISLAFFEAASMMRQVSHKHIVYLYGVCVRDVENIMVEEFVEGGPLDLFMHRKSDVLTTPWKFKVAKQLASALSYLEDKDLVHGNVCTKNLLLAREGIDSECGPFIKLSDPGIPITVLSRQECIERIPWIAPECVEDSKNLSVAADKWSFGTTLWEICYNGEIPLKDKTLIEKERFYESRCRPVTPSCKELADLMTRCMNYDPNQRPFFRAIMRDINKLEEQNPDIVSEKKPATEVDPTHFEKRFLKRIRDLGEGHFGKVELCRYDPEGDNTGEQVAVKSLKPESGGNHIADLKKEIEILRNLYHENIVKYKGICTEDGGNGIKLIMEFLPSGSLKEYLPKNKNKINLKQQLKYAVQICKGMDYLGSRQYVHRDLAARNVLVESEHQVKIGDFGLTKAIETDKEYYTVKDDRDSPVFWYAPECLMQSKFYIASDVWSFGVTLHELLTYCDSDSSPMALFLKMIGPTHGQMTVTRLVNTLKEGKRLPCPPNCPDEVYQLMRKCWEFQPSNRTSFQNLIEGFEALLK

PC-3 [17] = assay: Antiproliferative activity against human PC3 cells after 72 hrs by MTT assay; assay type: functional, cell-based; settings: PC-3, 72 h
[18] = target: T3, Aurora kinase A (Homo sapiens) (UniProt O14965); assay: Inhibition of Aurora A (unknown origin) at 1 uM after 40 mins by scintillation counting method relative to control
T3 sequence (whole entry): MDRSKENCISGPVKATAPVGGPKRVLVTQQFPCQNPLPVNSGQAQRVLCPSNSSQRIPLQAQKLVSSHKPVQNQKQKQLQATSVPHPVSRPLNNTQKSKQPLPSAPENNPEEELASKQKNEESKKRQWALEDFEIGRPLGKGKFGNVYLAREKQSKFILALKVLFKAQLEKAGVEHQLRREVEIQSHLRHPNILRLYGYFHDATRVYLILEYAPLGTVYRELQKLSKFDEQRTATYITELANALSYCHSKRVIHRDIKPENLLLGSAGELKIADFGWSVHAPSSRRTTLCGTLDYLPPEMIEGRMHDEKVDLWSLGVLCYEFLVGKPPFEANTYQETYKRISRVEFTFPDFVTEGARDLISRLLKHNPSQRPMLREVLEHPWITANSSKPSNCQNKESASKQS

[19] = target: Cyclin-dependent kinase 1 (Homo sapiens) (UniProt P06493); assay: Inhibition of CDK1 (unknown origin) at 1 uM after 40 mins by scintillation counting method relative to control
Chain of Cyclin-dependent kinase 1 (Homo sapiens) (P06493 whole entry, looked up): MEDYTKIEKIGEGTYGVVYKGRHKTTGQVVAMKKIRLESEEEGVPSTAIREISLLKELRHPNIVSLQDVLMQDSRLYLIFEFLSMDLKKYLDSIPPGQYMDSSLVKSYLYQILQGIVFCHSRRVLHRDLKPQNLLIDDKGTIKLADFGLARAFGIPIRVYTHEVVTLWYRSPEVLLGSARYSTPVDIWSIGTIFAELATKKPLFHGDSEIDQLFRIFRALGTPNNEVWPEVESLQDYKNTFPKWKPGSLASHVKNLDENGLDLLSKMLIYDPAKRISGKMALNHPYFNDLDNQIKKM

PC-3 [20] = assay: Induction of apoptosis in human PC3 cells assessed as live cells at 1 uM after 48 hrs by Annexin V-FITC/propidium iodide staining based flow cytometry (reference value: 97.19%); assay type: functional
[21] = target: Tyrosine-protein kinase ABL1 (Homo sapiens) (UniProt P00519); assay: Inhibition of ABL (unknown origin) at 1 uM after 40 mins by scintillation counting method relative to control
Chain of Tyrosine-protein kinase ABL1 (Homo sapiens) (P00519 whole entry): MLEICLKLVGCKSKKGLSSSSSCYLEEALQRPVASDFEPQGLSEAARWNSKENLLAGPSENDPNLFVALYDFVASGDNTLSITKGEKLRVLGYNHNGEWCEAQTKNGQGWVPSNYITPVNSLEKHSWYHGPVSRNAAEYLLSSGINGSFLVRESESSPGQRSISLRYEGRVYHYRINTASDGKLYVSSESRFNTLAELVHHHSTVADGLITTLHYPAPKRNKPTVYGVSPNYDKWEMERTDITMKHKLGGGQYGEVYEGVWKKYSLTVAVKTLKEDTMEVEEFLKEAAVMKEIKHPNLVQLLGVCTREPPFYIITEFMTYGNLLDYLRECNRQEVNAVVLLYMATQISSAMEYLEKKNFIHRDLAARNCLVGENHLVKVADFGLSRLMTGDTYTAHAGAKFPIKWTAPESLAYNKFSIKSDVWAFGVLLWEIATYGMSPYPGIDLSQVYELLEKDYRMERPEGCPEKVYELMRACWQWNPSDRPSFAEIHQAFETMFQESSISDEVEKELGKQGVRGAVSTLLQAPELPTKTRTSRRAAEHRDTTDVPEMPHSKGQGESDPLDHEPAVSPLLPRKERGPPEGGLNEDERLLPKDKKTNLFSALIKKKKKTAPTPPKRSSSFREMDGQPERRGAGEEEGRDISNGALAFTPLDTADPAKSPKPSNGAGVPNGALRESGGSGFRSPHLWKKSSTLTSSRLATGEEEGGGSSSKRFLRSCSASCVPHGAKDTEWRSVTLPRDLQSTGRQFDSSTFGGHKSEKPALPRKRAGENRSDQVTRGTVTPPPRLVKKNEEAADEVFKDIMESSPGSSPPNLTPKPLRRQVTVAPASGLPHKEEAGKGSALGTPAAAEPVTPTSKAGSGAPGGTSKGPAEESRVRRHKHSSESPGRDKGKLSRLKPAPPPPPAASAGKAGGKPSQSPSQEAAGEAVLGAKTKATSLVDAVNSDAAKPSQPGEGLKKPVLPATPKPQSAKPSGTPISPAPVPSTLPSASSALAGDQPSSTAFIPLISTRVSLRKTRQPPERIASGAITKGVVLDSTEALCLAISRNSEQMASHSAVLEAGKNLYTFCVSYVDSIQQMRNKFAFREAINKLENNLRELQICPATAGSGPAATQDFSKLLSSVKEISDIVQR

Homo sapiens [22] = species: Homo sapiens; assay: Selectivity ratio of compound effect for inhibition of AKT1 (unknown origin) to compound effect for inhibition of AKT2 (unknown origin)
[23] = target: RAC-gamma serine/threonine-protein kinase (Homo sapiens) (UniProt Q9Y243); assay: Inhibition of AKT3 (unknown origin) at 10 nM after 40 mins by scintillation counting method relative to control
Chain of RAC-gamma serine/threonine-protein kinase (Homo sapiens) (Q9Y243 whole entry): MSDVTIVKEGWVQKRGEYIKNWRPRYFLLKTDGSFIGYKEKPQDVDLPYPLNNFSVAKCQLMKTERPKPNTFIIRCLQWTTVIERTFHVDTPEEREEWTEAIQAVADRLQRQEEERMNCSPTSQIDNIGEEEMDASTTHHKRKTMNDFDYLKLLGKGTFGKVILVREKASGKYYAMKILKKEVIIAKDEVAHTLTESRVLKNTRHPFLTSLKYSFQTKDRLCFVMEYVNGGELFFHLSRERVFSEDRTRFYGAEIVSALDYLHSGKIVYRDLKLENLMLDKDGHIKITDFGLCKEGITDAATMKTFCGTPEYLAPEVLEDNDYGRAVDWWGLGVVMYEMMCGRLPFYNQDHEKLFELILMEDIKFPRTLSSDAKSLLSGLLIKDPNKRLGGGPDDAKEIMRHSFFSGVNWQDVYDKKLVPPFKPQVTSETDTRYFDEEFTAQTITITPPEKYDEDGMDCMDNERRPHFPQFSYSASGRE

PC-3 [24] = assay: Induction of apoptosis in human PC3 cells assessed as early apoptotic cells at 5 uM after 48 hrs by Annexin V-FITC/propidium iodide staining based flow cytometry (reference value: 1.05%); assay type: functional
in vitro [25] = assay: in vitro; set-up: dose or concentration left out as unconfirmed; settings: human, liver microsomes; remark: listed apart in the source
Description: Half life in human liver microsomes at 10 mM preincubated for 10 mins followed by NADPH addition by LC-MS analysis

[26] = target: T1, RAC-alpha serine/threonine-protein kinase; assay: Inhibition of AKT1 (unknown origin) at 0.1 uM using biotin-labelled STK as substrate measured after 45 mins by HTRF method relative to control
PC-3 [27] = assay: Induction of apoptosis in human PC3 cells assessed as necrotic cells at 1 uM after 48 hrs by Annexin V-FITC/propidium iodide staining based flow cytometry (reference value: 1.48%); assay type: functional

O=C(N1CCN(c2ncnc3[nH]nc(Cl)c23)CC1)C1(c2ccc(Cl)c(Cl)c2)CCNCC1
inhibition (Homo sapiens [1]): 99% | inhibition [2]: Active | inhibition [3]: 94.3% | inhibition [4]: inactive | Activity (PC-3 [5]): 11.23% | CLint scaled (in vitro [6]): < 0.516 L/h/kg | microsomal CLint (in vitro [6]): < 9.6 µL/min/mg | Activity (PC-3 [7]): 1.76% | inhibition [8]: inactive | inhibition [9]: inactive | Activity (PC-3 [10]): 16.6% | inhibition [11]: 99% | inhibition [12]: 82% | Selectivity ratio (Homo sapiens [13]): > 2 | Activity (PC-3 [14]): 68.92% | Activity (PC-3 [15]): 4.82% | inhibition [16]: inactive | IC50 (PC-3 [17]): 3.7 µM | inhibition [18]: 64% | inhibition [19]: inactive | Activity (PC-3 [20]): 90.48% | inhibition [21]: inactive | Selectivity ratio (Homo sapiens [22]): > 2 | inhibition [23]: 93% | Activity (PC-3 [24]): 3.93% | half-life (in vitro [25]): > 2.42 h | inhibition [26]: 83.7% | Activity (PC-3 [27]): 2%
